From PubChem BioAssay AID1259407 (Chemical Carcinogenesis Research Information System (CCRIS), 2018) come the findings set out here.

This data set relates to CCRIS mutagenicity, Ames/micronucleus/aberration tests. The experiment in a line: CCRIS mutagenicity studies.
[1] abbreviates: Test System: MOUSE LYMPHOMA, Strain/Indicator: L5178Y (TK+/TK-), Metabolic Activation: NONE, Method: SUSPENSION/PLATE.
Where [2] appears, read: Test System: AMES SALMONELLA TYPHIMURIUM, Strain/Indicator: TA98, Metabolic Activation: NONE, Method: STANDARD PLATE.
The mark [3] stands for this setting: Test System: AMES SALMONELLA TYPHIMURIUM, Strain/Indicator: TA98, Metabolic Activation: RAT, LIVER, S-9, AROCLOR 1254, Method: STANDARD PLATE.
[4] abbreviates: Test System: AMES SALMONELLA TYPHIMURIUM, Strain/Indicator: TA100, Metabolic Activation: NONE, Method: STANDARD PLATE.
[5] abbreviates: Test System: AMES SALMONELLA TYPHIMURIUM, Strain/Indicator: TA100, Metabolic Activation: RAT, LIVER, S-9, AROCLOR 1254, Method: STANDARD PLATE.

The source made the active and inactive calls. How the calls were made is not given here.

Take `O=[N+]([O-])c1ccc2c(c1)-c1ccc([N+](=O)[O-])c3cccc-2c13`: the mutagenic call is, setting by setting: (Test System: AMES SALMONELLA TYPHIMURIUM, Strain/Indicator: TA97, Metabolic Activation: NONE) “active; positive”; (Test System: AMES SALMONELLA TYPHIMURIUM, Strain/Indicator: TA98(1,8-DNP6), Metabolic Activation: NONE) “active; positive”; (Test System: AMES SALMONELLA TYPHIMURIUM, Strain/Indicator: TA98(NR), Metabolic Activation: NONE) “active; positive”; (Test System: AMES SALMONELLA TYPHIMURIUM, Strain/Indicator: TA98, Metabolic Activation: NONE) “active; positive”; (Test System: AMES SALMONELLA TYPHIMURIUM, Strain/Indicator: TA100, Metabolic Activation: NONE) “active; positive”; (Test System: AMES SALMONELLA TYPHIMURIUM, Strain/Indicator: TA1535, Metabolic Activation: NONE) “inactive; negative”. Further, the mutagenic call is “active; positive” (Test System: AMES SALMONELLA TYPHIMURIUM, Strain/Indicator: TA1537, Metabolic Activation: NONE); “active; positive” (Test System: AMES SALMONELLA TYPHIMURIUM, Strain/Indicator: TA1538, Metabolic Activation: NONE); “active; positive” (Test System: AMES SALMONELLA TYPHIMURIUM, Strain/Indicator: TA1978, Metabolic Activation: NONE).
Regarding `CCN(CC)C(=S)S`, the mutagenic call runs as follows: (End Point: IN VITRO CHROMOSOMAL ABERRATIONS, Test System: CHO CELLS, Metabolic Activation: RAT, LIVER, S-9, AROCLOR 1254) “inactive; negative”; (End Point: IN VITRO CHROMOSOMAL ABERRATIONS, Test System: TK6 HUMAN LYMPHOBLASTS, Metabolic Activation: NONE) “active; positive (weak response)”; under setting [1], “active; positive”.
`O=S(=O)(O)c1ccccc1`: the mutagenic call by setting is: (Test System: AMES SALMONELLA TYPHIMURIUM, Strain/Indicator: TA97, Metabolic Activation: HAMSTER, LIVER, S-9, AROCLOR 1254 (10 OR 30%), Method: PREINCUBATION) “inactive; negative”; (Test System: AMES SALMONELLA TYPHIMURIUM, Strain/Indicator: TA97, Metabolic Activation: NONE, Method: PREINCUBATION) “inactive; negative”; (Test System: AMES SALMONELLA TYPHIMURIUM, Strain/Indicator: TA97, Metabolic Activation: RAT, LIVER, S-9, AROCLOR 1254 (10 OR 30%), Method: PREINCUBATION) “inactive; negative”; (Test System: AMES SALMONELLA TYPHIMURIUM, Strain/Indicator: TA98, Metabolic Activation: HAMSTER, LIVER, S-9, AROCLOR 1254 (10 OR 30%), Method: PREINCUBATION) “inactive; negative”; (Test System: AMES SALMONELLA TYPHIMURIUM, Strain/Indicator: TA98, Metabolic Activation: NONE, Method: PREINCUBATION) “inactive; negative”; (Test System: AMES SALMONELLA TYPHIMURIUM, Strain/Indicator: TA98, Metabolic Activation: RAT, LIVER, S-9, AROCLOR 1254 (10 OR 30%), Method: PREINCUBATION) “inactive; negative”. Also, the mutagenic call is “inactive; negative” (Test System: AMES SALMONELLA TYPHIMURIUM, Strain/Indicator: TA100, Metabolic Activation: HAMSTER, LIVER, S-9, AROCLOR 1254 (10 OR 30%), Method: PREINCUBATION); “inactive; negative” (Test System: AMES SALMONELLA TYPHIMURIUM, Strain/Indicator: TA100, Metabolic Activation: NONE, Method: PREINCUBATION); “inactive; negative” (Test System: AMES SALMONELLA TYPHIMURIUM, Strain/Indicator: TA100, Metabolic Activation: RAT, LIVER, S-9, AROCLOR 1254 (10 OR 30%), Method: PREINCUBATION); “inactive; negative” (Test System: AMES SALMONELLA TYPHIMURIUM, Strain/Indicator: TA1535, Metabolic Activation: HAMSTER, LIVER, S-9, AROCLOR 1254 (10 OR 30%), Method: PREINCUBATION); “inactive; negative” (Test System: AMES SALMONELLA TYPHIMURIUM, Strain/Indicator: TA1535, Metabolic Activation: NONE, Method: PREINCUBATION); “inactive; negative” (Test System: AMES SALMONELLA TYPHIMURIUM, Strain/Indicator: TA1535, Metabolic Activation: RAT, LIVER, S-9, AROCLOR 1254 (10 OR 30%), Method: PREINCUBATION).
On to `CC(=O)Nc1ccc(/C=C/C(=O)c2ccccc2)cc1`, for which the mutagenic call under setting [2] is “inactive; negative”, the mutagenic call under setting [3] is “active; positive”, the mutagenic call under setting [4] was “active; positive” and the mutagenic call under setting [5] is “active; positive”.
Regarding `CC(C)CCCCCCOC(=O)CCCCC(=O)OCCCCCCC(C)C`, the mutagenic call (Test System: AMES SALMONELLA TYPHIMURIUM, Strain/Indicator: TA98, Metabolic Activation: HAMSTER, LIVER, S-9, AROCLOR 1254, Method: STANDARD PLATE) is “inactive; negative”; the mutagenic call under setting [2] is “inactive; negative”; the mutagenic call under setting [3] was “inactive; negative”; the mutagenic call (Test System: AMES SALMONELLA TYPHIMURIUM, Strain/Indicator: TA100, Metabolic Activation: HAMSTER, LIVER, S-9, AROCLOR 1254, Method: STANDARD PLATE) was “inactive; negative”; the mutagenic call under setting [4] was “inactive; negative”; the mutagenic call under setting [5] was “inactive; negative”. Besides, the mutagenic call is, setting by setting: (Test System: AMES SALMONELLA TYPHIMURIUM, Strain/Indicator: TA1535, Metabolic Activation: HAMSTER, LIVER, S-9, AROCLOR 1254, Method: STANDARD PLATE) “inactive; negative”; (Test System: AMES SALMONELLA TYPHIMURIUM, Strain/Indicator: TA1535, Metabolic Activation: NONE, Method: STANDARD PLATE) “inactive; negative”; (Test System: AMES SALMONELLA TYPHIMURIUM, Strain/Indicator: TA1535, Metabolic Activation: RAT, LIVER, S-9, AROCLOR 1254, Method: STANDARD PLATE) “inactive; negative”; (Test System: AMES SALMONELLA TYPHIMURIUM, Strain/Indicator: TA1537, Metabolic Activation: HAMSTER, LIVER, S-9, AROCLOR 1254, Method: STANDARD PLATE) “inactive; negative”; (Test System: AMES SALMONELLA TYPHIMURIUM, Strain/Indicator: TA1537, Metabolic Activation: NONE, Method: STANDARD PLATE) “inactive; negative”; (Test System: AMES SALMONELLA TYPHIMURIUM, Strain/Indicator: TA1537, Metabolic Activation: RAT, LIVER, S-9, AROCLOR 1254, Method: STANDARD PLATE) “inactive; negative”. Also, the mutagenic call reads like this: (Test System: AMES SALMONELLA TYPHIMURIUM, Strain/Indicator: TA1538, Metabolic Activation: HAMSTER, LIVER, S-9, AROCLOR 1254, Method: STANDARD PLATE) “inactive; negative”; (Test System: AMES SALMONELLA TYPHIMURIUM, Strain/Indicator: TA1538, Metabolic Activation: NONE, Method: STANDARD PLATE) “inactive; negative”; (Test System: AMES SALMONELLA TYPHIMURIUM, Strain/Indicator: TA1538, Metabolic Activation: RAT, LIVER, S-9, AROCLOR 1254, Method: STANDARD PLATE) “inactive; negative”; under setting [1], “inactive; negative”; (Test System: MOUSE LYMPHOMA, Strain/Indicator: L5178Y (TK+/TK-), Metabolic Activation: RAT, LIVER, S-9, AROCLOR 1254, Method: SUSPENSION/PLATE) “inactive; negative”.
